Test results from patent US11912701B2, “Protein kinase inhibitors for promoting liver regeneration or reducing or preventing hepatocyte death” (HEPAREGENIX GMBH, priority 2018, dated 2024).

Legend:
Format in all cases: biochemical
BRaf = biological target: T1, BRaf (Homo sapiens, UniProt P15056); test: 33PanQinase enzyme assay, BRaf; details: ratio IC50(BRaf)/IC50(MKK4)
T1 construct: purchased ProQinase GmbH, Freiburg, Germany (33PanQinase Assay Service)
T1 sequence (P15056 whole entry, species assumed): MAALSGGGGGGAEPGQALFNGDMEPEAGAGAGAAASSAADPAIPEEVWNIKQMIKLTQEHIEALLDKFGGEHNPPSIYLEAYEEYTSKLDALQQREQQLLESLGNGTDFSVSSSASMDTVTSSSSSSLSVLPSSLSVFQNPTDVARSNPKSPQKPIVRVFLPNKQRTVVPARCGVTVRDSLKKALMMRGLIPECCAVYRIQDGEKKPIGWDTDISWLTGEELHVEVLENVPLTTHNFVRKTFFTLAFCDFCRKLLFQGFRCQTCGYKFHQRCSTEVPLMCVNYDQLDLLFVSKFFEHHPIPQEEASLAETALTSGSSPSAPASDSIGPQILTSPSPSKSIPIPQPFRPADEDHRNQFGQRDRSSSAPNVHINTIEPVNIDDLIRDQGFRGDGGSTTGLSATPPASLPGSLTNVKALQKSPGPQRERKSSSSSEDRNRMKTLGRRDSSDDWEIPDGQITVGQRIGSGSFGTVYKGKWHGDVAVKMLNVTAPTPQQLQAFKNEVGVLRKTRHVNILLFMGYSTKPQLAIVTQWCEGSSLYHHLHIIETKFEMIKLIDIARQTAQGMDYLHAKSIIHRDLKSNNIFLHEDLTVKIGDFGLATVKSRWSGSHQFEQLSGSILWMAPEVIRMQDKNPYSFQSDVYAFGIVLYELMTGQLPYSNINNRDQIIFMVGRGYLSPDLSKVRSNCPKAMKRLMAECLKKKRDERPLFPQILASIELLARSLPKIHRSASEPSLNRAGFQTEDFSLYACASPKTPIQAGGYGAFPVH
Protocol: (§1) The kinase activities of the compounds of the invention were measured using the 33PanQinase® Assay Service provided by ProQinase GmbH, Freiburg, Germany. Details of the assay conditions are disclosed on the website of ProQinase (https://www.proginase.com/products-services-biochemical-assay-services/kinase-assays). In brief, all kinase assays were performed in 96-well FlashPlates™ from PerkinElmer (Boston, MA, USA) in a 50 μl reaction volume. The reaction cocktail was pipetted in four steps in the following order: • 20 μl of assay buffer (standard buffer) • 5 μl of ATP solution (in H2O) • 5 μl of test compound (in 10% DMSO) • 20 μl enzyme/subtrate mix
(§2) The reaction cocktails were incubated at 30° C. for 60 minutes. The reaction is stopped with 50 μl of 2% (v/v) H3PO4, plates were aspirated and washed two times with 200 μl 0.9% (w/v) NaCl. Incorporation of ^33Pi was determined with a microplate scintillation counter (Microbeta, Wallac).
(§3) All assays were performed with a BeckmanCoulter/SAGIAN™ Core System.
(§4) In case of single concentration assays, the potency of the test compound is expressed as % residual activity. […] The fitting method used was a least-squares fit.
(§5) Selectivity of test compounds against BRaf, JNK1 and MKK7, altogether denominated as off-targets was calculated by the ratio of IC50 (off-target)/IC50 (MKK4) and categorized as follows: […]

MKK7 = biological target: T2, MKK7 (Homo sapiens, UniProt O14733); test: 33PanQinase enzyme assay, MKK7; design: purchased ProQinase GmbH, Freiburg, Germany (33PanQinase Assay Service); details: ratio IC50(MKK7)/IC50(MKK4)
T2 sequence (O14733 1-419): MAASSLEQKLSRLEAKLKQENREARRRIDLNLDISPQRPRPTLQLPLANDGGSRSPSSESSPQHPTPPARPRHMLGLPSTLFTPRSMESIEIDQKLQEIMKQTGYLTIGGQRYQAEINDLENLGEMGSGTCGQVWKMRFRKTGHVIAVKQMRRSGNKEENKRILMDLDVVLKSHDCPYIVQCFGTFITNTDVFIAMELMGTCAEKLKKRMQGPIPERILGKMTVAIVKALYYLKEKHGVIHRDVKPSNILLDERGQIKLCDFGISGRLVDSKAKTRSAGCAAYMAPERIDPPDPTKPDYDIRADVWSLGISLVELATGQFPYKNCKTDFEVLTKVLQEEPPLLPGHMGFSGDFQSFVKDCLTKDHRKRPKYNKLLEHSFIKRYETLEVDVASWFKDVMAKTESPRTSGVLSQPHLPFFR
Protocol: as §1, §2, §3, §4, §5

JNK1 = JNK1 (Homo sapiens, UniProt P45983); test: 33PanQinase enzyme assay, JNK1; design: purchased ProQinase GmbH, Freiburg, Germany (33PanQinase Assay Service); details: ratio IC50(JNK1)/IC50(MKK4)
JNK1, sequence (P45983 whole entry): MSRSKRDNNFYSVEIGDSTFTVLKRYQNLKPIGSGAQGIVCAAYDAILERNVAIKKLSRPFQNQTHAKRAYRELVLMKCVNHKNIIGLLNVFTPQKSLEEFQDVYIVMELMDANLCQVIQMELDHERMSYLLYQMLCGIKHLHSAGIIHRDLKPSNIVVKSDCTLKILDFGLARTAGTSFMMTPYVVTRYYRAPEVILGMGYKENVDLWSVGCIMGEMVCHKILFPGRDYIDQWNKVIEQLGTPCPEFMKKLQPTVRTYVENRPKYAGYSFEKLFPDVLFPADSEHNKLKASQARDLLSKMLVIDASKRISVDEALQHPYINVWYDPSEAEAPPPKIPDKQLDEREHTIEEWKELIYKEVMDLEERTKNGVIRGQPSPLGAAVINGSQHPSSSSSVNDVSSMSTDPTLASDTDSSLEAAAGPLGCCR
Protocol: as §1, §2, §3, §4, §5

MKK4 = biological target: T3, MKK4 (Homo sapiens, UniProt P45985); test: 33PanQinase enzyme assay, MKK4; details: assay 'IC50'; for IC50: read-out: Potency MKK4 (IC50)
T3 construct: purchased ProQinase GmbH, Freiburg, Germany (33PanQinase Assay Service)
T3 sequence (P45985 1-399): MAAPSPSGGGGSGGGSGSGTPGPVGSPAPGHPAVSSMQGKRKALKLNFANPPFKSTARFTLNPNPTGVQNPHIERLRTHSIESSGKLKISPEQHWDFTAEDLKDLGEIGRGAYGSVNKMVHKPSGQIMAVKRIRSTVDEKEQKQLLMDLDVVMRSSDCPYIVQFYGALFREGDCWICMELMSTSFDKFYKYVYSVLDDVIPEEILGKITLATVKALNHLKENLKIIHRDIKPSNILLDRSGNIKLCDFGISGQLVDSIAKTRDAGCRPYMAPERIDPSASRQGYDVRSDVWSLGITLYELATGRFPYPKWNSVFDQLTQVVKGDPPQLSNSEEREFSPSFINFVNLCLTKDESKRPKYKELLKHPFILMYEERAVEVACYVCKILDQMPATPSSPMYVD
Protocol: as §1, §2, §3, §4
Inhibition potency against MKK4 is categorized as follows:
Assay at single concentration (100 nM):

| SMILES | Selectivity Braf, IC50(off-target)/IC50(MKK4) (BRaf) | Selectivity IVIKK7, IC50(off-target)/IC50(MKK4) (MKK7) | Selectivity JNK1, IC50(off-target)/IC50(MKK4) (JNK1) | IC50 (MKK4) [nM] | Potency MKK4 (IC50) (MKK4) |
| --- | --- | --- | --- | --- | --- |
| CCCS(=O)(=O)Nc1c(F)ccc(C(=O)c2c[nH]c3ncc(-c4cnc(SC(C)C)nc4)cc23)c1F [Example 197, N-(2,6-difluoro-3-(5-(2-(isopropylthio)pyrimidin-5-yl)-1H-pyrrolo[2,3-b]pyridine-3-carbonyl)phenyl)propane-1-sulfonamide] | +++ (IC50(off-target)/IC50(MKK4) > 100) | +++ (IC50(off-target)/IC50(MKK4) > 100) | ++ (100 ≥ IC50(off-target)/IC50(MKK4) > 10) | 100 to 1000 |  |
| CCCS(=O)(=O)Nc1c(F)ccc(C(=O)c2c[nH]c3ncc(-c4ccc(-c5nnn[nH]5)cc4)cc23)c1F [Example 219, N-(3-(5-(4-(1H-tetrazol-5-yl)phenyl)-1H-pyrrolo[2,3-b]pyridine-3-carbonyl)-2,6-difluorophenyl)propane-1-sulfonamide] | +++ (IC50(off-target)/IC50(MKK4) > 100) | +++ (IC50(off-target)/IC50(MKK4) > 100) | ++ (100 ≥ IC50(off-target)/IC50(MKK4) > 10) |  | ++·+ |
| CCCS(=O)(=O)Nc1c(F)ccc(C(=O)c2c[nH]c3ncc(-c4cnc(-c5ccc6nc[nH]c6c5)nc4)cc23)c1F [Example 210, N-(3-(5-(2-(1H-benzo[d]imidazol-6-yl)pyrimidin-5-yl)-1H-pyrrolo[2,3-b]pyridine-3-carbonyl)-2,6-difluorophenyl)propane-1-sulfonamide] | ++ (100 ≥ IC50(off-target)/IC50(MKK4) > 10) | ++ (100 ≥ IC50(off-target)/IC50(MKK4) > 10) | + (10 ≥ IC50(off-target)/IC50(MKK4) > 3) | 1000 to 10000 |  |
| CCCS(=O)(=O)Nc1c(F)ccc(C(=O)c2c[nH]c3ncc(-c4ccc(S(C)(=N)=O)cc4)cc23)c1F (stereo not drawn) [Example 151, N-(2,6-difluoro-3-(5-(4-(S-methylsulfonimidoyl)phenyl)-1H-pyrrolo[2,3-b]pyridine-3-carbonyl)phenyl)propane-1-sulfonamide] | ++ (100 ≥ IC50(off-target)/IC50(MKK4) > 10) | +++ (IC50(off-target)/IC50(MKK4) > 100) | ++ (100 ≥ IC50(off-target)/IC50(MKK4) > 10) | 100 to 1000 |  |
| CCCS(=O)(=O)Nc1c(F)ccc(C(=O)c2c[nH]c3ncc(-c4cnc(N5CC[C@@H](O)C5)nc4)cc23)c1F [Example 204, (R)-N-(2,6-difluoro-3-(5-(2-(3-hydroxypyrrolidin-1-yl)pyrimidin-5-yl)-1H-pyrrolo[2,3-b]pyridine-3-carbonyl)phenyl)propane-1-sulfonamide] | ++ (100 ≥ IC50(off-target)/IC50(MKK4) > 10) | +++ (IC50(off-target)/IC50(MKK4) > 100) | +++ (IC50(off-target)/IC50(MKK4) > 100) | 100 to 1000 |  |
| CCCS(=O)(=O)Nc1ccc(F)c(C(=O)c2c[nH]c3ncc(-c4cscn4)cc23)c1F [Example 57] | ◯ (3 ≥ IC50(off-target)/IC50(MKK4)) | +++ (IC50(off-target)/IC50(MKK4) > 100) | ◯ (3 ≥ IC50(off-target)/IC50(MKK4)) | 100 to 1000 |  |
| CCCS(=O)(=O)Nc1ccc(F)c(C(=O)c2c[nH]c3ncc(N4CC(C)OC(C)C4)cc23)c1F (stereo not drawn) [Example 138, N-(3-(5-(2,6-dimethyl-morpholino)-1H-pyrrolo[2,3-b]pyridine-3-carbonyl)-2,4-difluorophenyl)propane-1-sulfonamide] | ◯ (3 ≥ IC50(off-target)/IC50(MKK4)) | ++ (100 ≥ IC50(off-target)/IC50(MKK4) > 10) | ◯ (3 ≥ IC50(off-target)/IC50(MKK4)) | 1000 to 10000 |  |
| CCCS(=O)(=O)Nc1ccc(F)c(C(=O)c2c[nH]c3ncc(-c4ccccc4C(F)(F)F)cc23)c1F [Example 97, N-(2,4-difluoro-3-(5-(2-(trifluoromethyl)phenyl)-1H-pyrrolo[2,3-b]pyridine-3-carbonyl)phenyl)propane-1-sulfonamide] | ◯ (3 ≥ IC50(off-target)/IC50(MKK4)) | +++ (IC50(off-target)/IC50(MKK4) > 100) | + (10 ≥ IC50(off-target)/IC50(MKK4) > 3) | 100 to 1000 |  |
| CCCS(=O)(=O)Nc1ccc(F)c(C(=O)c2c[nH]c3ncc(N4CC(O)C4)cc23)c1F [Example 134, N-(2,4-difluoro-3-(5-(3-hydroxyazetidin-1-yl)-1H-pyrrolo[2,3-b]pyridine-3-carbonyl)phenyl)propane-1-sulfonamide] | ◯ (3 ≥ IC50(off-target)/IC50(MKK4)) | ++ (100 ≥ IC50(off-target)/IC50(MKK4) > 10) | ◯ (3 ≥ IC50(off-target)/IC50(MKK4)) | 1000 to 10000 |  |
| CCCS(=O)(=O)Nc1c(F)ccc(C(=O)c2c[nH]c3ncc(-c4ccc(S(F)(F)(F)(F)F)cc4)cc23)c1F [Example 155, N-(2,6-difluoro-3-(5-(4-(pentafluoro-l6-sulfaneyl)phenyl)-1H-pyrrolo[2,3-b]pyridine-3-carbonyl)phenyl)propane-1-sulfonamide] | +++ (IC50(off-target)/IC50(MKK4) > 100) | +++ (IC50(off-target)/IC50(MKK4) > 100) | ++ (100 ≥ IC50(off-target)/IC50(MKK4) > 10) |  | ++·+ |

Other lines, results leading:

| Selectivity Braf, IC50(off-target)/IC50(MKK4) (BRaf) | Selectivity IVIKK7, IC50(off-target)/IC50(MKK4) (MKK7) | Selectivity JNK1, IC50(off-target)/IC50(MKK4) (JNK1) | IC50 (MKK4) [nM] | Potency MKK4 (IC50) (MKK4) | SMILES |
| --- | --- | --- | --- | --- | --- |
| +++ (IC50(off-target)/IC50(MKK4) > 100) | +++ (IC50(off-target)/IC50(MKK4) > 100) | +++ (IC50(off-target)/IC50(MKK4) > 100) | 100 to 1000 |  | CCCS(=O)(=O)Nc1c(F)ccc(C(=O)c2c[nH]c3ncc(-c4cnc(NCCOC)nc4)cc23)c1F [Example 187, N-(2,6-difluoro-3-(5-(2-((2-methoxyethyl)amino)pyrimidin-5-yl)-1H-pyrrolo[2,3-b]pyridine-3-carbonyl)phenyl)propane-1-sulfonamide] |
| +++ (IC50(off-target)/IC50(MKK4) > 100) | +++ (IC50(off-target)/IC50(MKK4) > 100) | +++ (IC50(off-target)/IC50(MKK4) > 100) | < 100 |  | CCCS(=O)(=O)Nc1c(F)ccc(C(=O)c2c[nH]c3ncc(-c4cnc(SC)nc4)cc23)c1F [Example 195, N-(2,6-difluoro-3-(5-(2-(methylthio)pyrimidin-5-yl)-1H-pyrrolo[2,3-b]pyridine-3-carbonyl)phenyl)propane-1-sulfonamide] |
